{
  "source": "paper PMC12002301",
  "about": "“Discovery and functional characterization of a bombesin-type neuropeptide signaling system in an invertebrate” (Proceedings of the National Academy of Sciences of the …, 2025)",
  "test_system": "cardiac stomach preparations",
  "experiment": "In vitro contraction of cardiac stomach preparations",
  "set-up": "species or system Asterias rubens",
  "details": "words, ArBN 10^-9 to 10^-6 M",
  "method": "ArBN (EPRRNYNRVFGPTY-NH2), ArBN5-14 (NYNRVFGPTY-NH2), and ArBNP65-81 (EPMPSSLALYIANLSP-NH2), were tested for effects on in vitro cardiac stomach and tube foot preparations from A. rubens. The preparations were dissected as described previously ([43], [59]–[61]), with the organs immersed in ice-cold artificial seawater during dissection. A description of the methods employed for investigation of in vitro effects of ArBN on cardiac stomach and tube foot preparations from A. rubens is included in SI Appendix, SI Methods. […]\nWax was removed from slides using xylene (3 × 10 min) and then slides were immersed in 100% ethanol (2 × 10 min). 0.3% hydrogen peroxide (VWR Chemicals, UK) in methanol was used to quench endogenous peroxidases for 30 min and then an ethanol series (90%, 70%, 50%), distilled water and PBST were used to rehydrate the tissue sections. 5% goat serum (Sigma-Aldrich, UK) made up in PBST was used for blocking for 2 h at room temperature. […]\nAll the dissected preparations were set up in an aerated organ bath filled with 20 ml artificial seawater maintained at approximately 11°C. Changes in the contractile state of preparations were detected by the transducer, which was linked via a bridge amplifier (FE221 Bridge Amp, ADInstruments Ltd, Oxford, UK) to data acquisition hardware (PowerLab 2/36, ADInstruments Ltd, Oxford, UK). […]",
  "data": [
    {"substance": "NYNRVFGPTY-NH2 [ArBN5-14, C-terminally amidated 10-residue peptide corresponding to the C-terminal region of ArBN]", "values": [
      {"measurement": "effect on cardiac stomach preparations", "result": "neither ArBN5-14 nor ArBNP65-81 had any observable effect"}
    ]},
    {"substance": "EPMPSSLALYIANLSP-NH2 [ArBNP65-81, C-terminally amidated 16-residue peptide predicted to be derived from residues 65 to 81 of ArBNP]", "values": [
      {"measurement": "effect on cardiac stomach preparations", "result": "neither ArBN5-14 nor ArBNP65-81 had any observable effect"}
    ]}
  ]
}
